# Measured values: patent US11479604B2, “Immunomodulatory peptides and methods for modulating the immune system in a subject” (Recepta Biopharma S.A., priority 2017, dated 2022)
# How the values were obtained:
# B16F10-Nex2 tumor cells = assay: Metastatic melanoma model in immunodeficient mice; type: in vivo, NOD/Scid/IL-2R-gamma^null mice; conditions: 250 μg i.p. on days 1-11, lungs on day 22
# Protocol: B16F10-Nex2 tumor cells (2×10^5) in RPMI (100 μl) were injected in both animal groups in the tail veins on day 0. Animals were sacrificed on day 22, or 10 days after the last administration of the peptide, and their lungs were examined for dark melanotic nodules.
# [1] = system: B16F10-Nex2 melanoma cells; assay: Prophylactic adoptive transfer of peptide-stimulated dendritic cells, metastatic melanoma; type: in vivo, syngeneic mice; conditions: DCs incubated with 50 μg/ml peptide, with or without tumor cell lysate; s.c.; tumor challenge day 14, count day 29
# Protocol: DCs were obtained from the bone marrow of 6 to 8-week-old C57Bl6 mice. Briefly, femora and tibiae from mice were removed and stripped of muscles and tendons; both bone ends were cut, and bone marrow was extracted by placing the bone pieces into 1-ml tips, which in turn were inserted into 15-ml tubes and centrifuged for 10 minutes at 1500 rpm. Cells were resuspended in DMEM and cell clusters were dissociated by repeated pipetting. The total bone marrow cells were cultured in 100-mm treated tissue culture dish in 10 ml of R10 medium (DMEM medium supplemented with 2 mM glutamine, 10,000 U/ml penicillin, 10 mg/ml streptomycin, 50 μM 2-mercaptoethanol, 1 mM sodium pyruvate, MEM-nonessential aminoacids, MEM Vitamin solution, 10% heat-inactivated fetal bovine serum and GM-CSF (20 ng/ml) and IL-4 (40 ng/ml). Fresh medium (3 ml) with GM-CSF (200 ng/ml) and IL-4 (400 ng/ml) was added every 3 days. On day 7, adherent cells, that were harvested using PBS 2 mM EDTA, together with the non-adherent cells were pooled and used as the starting cell source for the experiments. BMDC Protocol 2
# DCs were inoculated s.c. in syngeneic mice. On day 14, mice were inoculated i.v. with melanoma tumor cells (5×10^5 cells) and on day 29, the lung melanotic nodules were counted.
# splenocytes = assay: Splenocyte cytokine production in melanoma-bearing treated mice (ELISA); type: in vivo; conditions: 300 μg i.p. 5 consecutive days
# Protocol: Mice were challenged with 5×10^5 B16F10-Nex2 cells via the i.v. route. […] Peptides at 300 μg solubilized in 10 μl distilled H2O and 90 μl of PBS were injected via i.p. route per animal, for 5 consecutive days initiating one day after tumor cell challenge. Seventeen days after tumor challenge mice were sacrificed and spleens were removed. Splenocytes after incubation in hemolysis buffer were suspended in R10 medium and plated in 6-well plates and 10^6 cells/well. Cells were incubated for 72 h with or without tumor cell lysate (from 10^5 B16F10-Nex2 cells) in triplicate. The supernatants were collected, and cytokines measured by ELISA (FIG. 11).
# [2] = system: human mo-DC co-cultured with allogeneic lymphocytes; assay: Allogeneic lymphocyte proliferation induced by mo-DC of healthy donors (CFSE); type: cell-based; conditions: TNF, tumor lysate and peptide; mo-DC:lymphocyte 1:30
# Protocol: Mo-DC were co-cultured with allogeneic lymphocytes (DC:Ly=1:30) to evaluate their ability to induce lymphocyte proliferation. This was measured by carboxyfluorescein succinimidyl ester (CFSE—Molecular Probes) dilution and activation measured by correlation among CD4/CD25 and Foxp3 expression (Clavijo-Salomon et al., 2016).
# After two days in co-culture, the dilution of CFSE in lymphocytes was evaluated as a measurement of lymphocyte proliferation.
# [3] = system: mo-DC obtained from cancer patients' monocytes; assay: Surface phenotype of mo-DC from cancer patients; type: cell-based, human
# Protocol: Peripheral blood mononuclear cells (PBMCs) were isolated by centrifugation over Ficoll-Paque Plus (GE Healthcare). After a 2 h-incubation in plastic 6-well plates, non-adherent cells were removed from culture and adherent cells (monocytes) were cultivated for 7 days in RPMI-1640 culture medium (Gibco, Grand Island, N.Y., USA), supplemented with 10% FCS (Gibco) plus antibiotic-antimycotic (Gibco) and in the presence of GM-CSF (50 ng/ml—Peprotech, Mexico) and IL-4 (50 ng/ml—Peprotech). At day 5 of culture TNF-α (50 ng/ml; Peprotech, Mexico) was added for mo-DC maturation.
# Human cells were analyzed in a similar manner, but staining was performed in BSA-PBS, without EDTA. Antibodies against CD11c, CD14, CD80, CD83, CD86, HLA-ABC, HLA-DR, CCR7, PD-L1, conjugated with different fluorochromes and live/dead labeling (Molecular Probes, Oregon, USA) were used. Acquisition was performed in a FACSCanto II analyzer (BD Biosciences) and analyzed with the FlowJo Software X.10.07r2 (Tree Star).
# Since it is well known that mo-DC from cancer patients can be functionally biased, but are not always so, the patients were separated into two groups, according to their mo-DC ability to induce allogeneic T cell proliferation. Patients whose mo-DC induced less than 35% of the phytohemagglutinin A (PHA)-induced response constituted one group (“defective”) and those whose mo-DC induced a response higher than 35% of the PHA response, the other (“normal”).
# human mo-DC = assay: Expression of MIF receptor and co-receptors by human mo-DC; type: cell-based
# Protocol: CD44 expression was evaluated by BV-421-labeled monoclonal antibodies and negative controls in the figure refer to unlabeled cells.
# Negative controls in the figure refer to unlabeled cells.
# The parameters included in the analysis were the expression of HLA-DR (BV-510 labeled mAb), PD-L1 (PE-labeled mAb), CD44 (BV-421-labeled mAb), CD74 (FITC-labeled mAb) and CXCR4 (PE-Cy5-labeled mAb).
# [4] = system: LPS stimulated DCs characterized by CD11c+ MHC-II+; assay: Co-stimulatory markers of LPS stimulated murine bone-marrow DCs; type: cell-based
# Excerpt: Rb9 immunomodulation of murine bone-marrow dendritic cells (DCs) was also examined focusing on co-stimulatory markers.
substance,measurement,setting,value
"[CARGETARATFAYWGQGC], NH2 (C-C) [Rb9]",protection against lung nodules,B16F10-Nex2 tumor cells,No protection
same,protective effect of peptide-stimulated DCs (lung melanotic nodules),[1],remarkable protective effect
same,IL-12 production in splenocytes,splenocytes; no stimulus necessary,comparable in the three groups
same,IFN-gamma production in splenocytes,"splenocytes; splenocytes with tumor cell lysate 72 h, relative to untreated control",increased
same,IL-10 production in splenocytes,splenocytes; with tumor cell lysate,no effect
same,TNF-alpha production in splenocytes,splenocytes; with tumor cell lysate,no effect
same,IL-6 production in splenocytes,"splenocytes; with tumor cell lysate, relative to untreated control",decreased
same,lympho-stimulatory ability of mo-DC,[2],further enhance the lympho-stimulatory ability
same,effects on surface phenotype of cancer patients' mo-DC,[3]; all patients,heterogeneous
same,"effect on phenotype (differentiation, maturation) of ""defective"" mo-DC",[3]; patients whose mo-DC induced less than 35% of the PHA-induced response,clearly affected the phenotype
same,"effect on phenotype of ""normal"" mo-DC",[3]; patients whose mo-DC induced more than 35% of the PHA response,little effect
same,CD74^lowCXCR4^low cell subpopulation (tSNE analysis),human mo-DC; LPS-stimulated human mo-DC,disappearance of a CD74^lowCXCR4^low cell subpopulation
same,expression of the MIF co-receptor CXCR4 after treatment,"human mo-DC; LPS-stimulated human mo-DC, 16.7% without peptide",28.2%
same,expression of the MIF receptor CD74 after treatment,"human mo-DC; LPS-stimulated human mo-DC, 56.8% without peptide",87.5%
same,reduction in CD44 intensity (MFI),human mo-DC; TGF-beta+IL-10-treated human mo-DC,20%
same,frequency of CD44 positive cells after treatment,"human mo-DC; TGF-beta+IL-10-treated human mo-DC, 57% without peptide",52%
same,CD40 expression,[4],regulated CD40 expression
same,expression of CD80 and CD86,[4]; Rb9 mainly at 50 μg/ml,significantly stimulated
